In PubChem BioAssay (NCI):
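Where inhibition never reached the appropriate level, the endpoint shown equals the highest concentration tested. Otherwise, values were interpolated linearly from a five-concentration, 48-hour dose response in 96-well plates. The concentration for 50% growth inhibition is given as GI50. TGI denotes the concentration required for complete inhibition of growth.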

Experiments:
Test in all cases: growth of human tumour cells (NCI), 48 h
[1] = system: BT-549 breast
[2] = system: UO-31 renal
[3] = system: SK-MEL-5 melanoma
[4] = system: HT29 colon
[5] = system: SF-295 CNS
[6] = system: MOLT-4 leukemia
[7] = system: OVCAR-3 ovarian
[8] = system: CCRF-CEM leukemia
[9] = system: MDA-MB-231 breast
[10] = system: M14 melanoma

SMILES | TGI [1] | TGI [2] | TGI [3] | TGI [4] | TGI [5] | TGI [6] | TGI [7] | TGI [8] | TGI [9] | TGI [10] | GI50 [1] | GI50 [2] | GI50 [3] | GI50 [4] | GI50 [5] | GI50 [6] | GI50 [7] | GI50 [8] | GI50 [9] | GI50 [10]
CCOC(=O)c1[nH]cc(C)c1-c1cccn1-c1ccc(Cl)cc1[N+](=O)[O-] | 83.7 µM | 54.9 µM | 28.1 µM | 30.7 µM | 83 µM | 46.4 µM | 29.5 µM | 64.3 µM | 27.5 µM | 41 µM | – | – | – | – | – | – | – | – | – | –
CC(C)NC(=O)OCc1c(COC(=O)NC(C)C)c(-c2ccc[n+](COC(=O)Cc3ccccc3)c2)n2c1CCC2 | 66.6 µM | 70.8 µM | > 100 µM | > 100 µM | > 100 µM | > 100 µM | > 100 µM | > 100 µM | 74.7 µM | > 100 µM | – | – | – | – | – | – | – | – | – | –
C=C(C)[C@@H](O)[C@H](O)C[C@H](C)C1CC[C@]2(C)C1=CC[C@@H]1[C@@]3(C)CC[C@@H](OC(C)=O)C(C)(C)[C@@H]3C[C@@H](OC3OC(COC(C)=O)C(O)C(O)C3O)[C@]12C (stereo not given in full) | 10.3 µM | 12.4 µM | 3.73 µM | 4.04 µM | 4.69 µM | 4.5 µM | 4.79 µM | 5.95 µM | 6.64 µM | 7.38 µM | – | – | – | – | – | – | – | – | – | –
COc1ccc2c(c1)N(Cc1ccc(Cl)cc1)CCC2N1CCCC1=O (stereo not given) | 19.6 µM | 14.6 µM | 4.61 µM | > 100 µM | 5.08 µM | 24.6 µM | > 100 µM | > 100 µM | 98.5 µM | 17.6 µM | 3.23 µM | 1.79 µM | 2.05 µM | 7.2 µM | 1.67 µM | 4.9 µM | 4.42 µM | 4.74 µM | 4.84 µM | 4.42 µM
